Test results: patent US20030003114A1, “Enzyme-based anti-cancer compositions and methods” (priority 2001, published 2003)

Experiments:
[1] = tested on: 24 JK murine sarcoma cells; experiment: Syngeneic tumor model, 24 JK murine sarcoma in C57BL/6 mice; parameters: anti-tumor effectiveness: dose or concentration left out as unconfirmed
Protocol: In the case where a hexosaminidase is tested for anti-tumor activity on murine tumor cells or tissues, a syngeneic tumor model is used. In this model, tumor cells or tissues are implanted in C57BL/6 mice. As in the SCID mouse model described above, the implanted tumors are allowed to grow to a size of approximately 50 to 100 mm^3 before various amounts of the hexosaminidase are administered to the animal, by any of the means described above. The decrease in tumor size or, preferably, elimination of the tumor from the mouse, is subsequently observed.
In both the SCID and C57BL/6 models described above, the anti-tumor activity of a hexosaminidase is compared to the anti-tumor activity of a known anti-tumor agent. For example, mice containing tumors are treated with doxorubicin. A suitable dose of doxorubicin is 5 mg per kg of body weight of the mice.
A syngeneic tumor model, C57BL/6 mice carrying implanted 24 JK murine sarcoma cells, was used in these studies. The cells were injected subcutaneously into the mouse flank. Five days later, 5 units of chitinase was injected intraperitoneally (IP) into the mouse. Into another mouse was injected 5 mg doxorubicin per kilogram of mouse weight IP on days 5, 7 and 9. Into a third mouse was injected saline on day 5 (i.e., negative control).

[2] = tested on: spleen cells from a normal mouse; experiment: MTT dye reduction viability assay, normal cells; assay type: cell-based; conditions: concentrations up to 1.0 units per ml of culture medium, 3 days, FIG. 1
Source text: Different concentrations of the hexosaminidases are used. […] One method is the MTT assay.

[3] = tested on: lung cancer cells; experiment: Cultured tumor cells treated with chitinase, cellular damage (electron micrographs); assay type: cell-based, human; conditions: within hours of treatment, ultimately leading to cell death
[4] = tested on: melanoma cells; experiment: as above; assay type: cell-based, human; conditions: within hours of treatment, ultimately leading to cell death
[5] = tested on: prostate cancer LNCaP cells; experiment: Cultured tumor cells treated with chitinase, cellular damage; assay type: cell-based, human; conditions: within hours of treatment, ultimately leading to cell death
[6] = tested on: breast cancer MCF-7 cells; experiment: Cultured tumor cells treated with chitinase, cellular damage (electron micrographs); assay type: cell-based, human; conditions: within hours of treatment, ultimately leading to cell death
[7] = tested on: Moderately differentiated adenocarcinoma from human colon; experiment: Human colon cancer xenograft in SCID mice, tumor size; assay type: in vivo; conditions: 5 units injected into the tumor (day 1), FIG. 2
Protocol: (§1) The effect of hexosaminidases on survival of tumor cells is also tested by administering hexosaminidases to experimental animals that have various tumors. Preferably, the tumors are human tumors or cancer xenograft tissues and the experimental animal is a SCID mouse. Good results have been obtained by transplanting tumor cells or tissues subcutaneously in the animal or behind the fat pad of the mouse. After the tumor cells or tissues are transplanted into the animal, the tumors cells grow and divide. When the tumors reach a visible size (e.g., 0.5-0.8 cm^3) in the SCID mice, a hexosaminidase is dissolved in PBS and various amounts of the hexosaminidase are injected into the tumor (i.e., intratumor injection), injected intraperitoneally (IP) into the animal, or intravenously (IV) into the animal. Single or multiple injections are used. The size of the tumor is subsequently measured to determine the effect of the enzyme on tumor growth and survival. A decrease in size of the tumors is indicative of anti-tumor activity of the hexosaminidase. Preferably, administration of the hexosaminidase results in a significant size reduction of the tumor. […]
Moderately differentiated adenocarcinoma from human colon was obtained from patients as a biopsy sample and a 0.1 cm^3 piece of the biopsy was implanted into SCID mice. […] Subsequently, the size of the tumors was measured daily.

[8] = tested on: Moderately differentiated squamous cell carcinoma from human lung; experiment: Human lung cancer xenograft in SCID mice, tumor size; assay type: in vivo
Protocol: as §1
Moderately differentiated squamous cell carcinoma from human lung was obtained from patients as a biopsy sample and a 0.1 cm^3 piece of the biopsy was implanted into SCID mice. […] Subsequently, the size of the tumors was measured daily. […]

[9] = tested on: Poorly differentiated carcinoma from human bladder; experiment: Human bladder cancer xenograft in SCID mice, tumor size; assay type: in vivo; conditions: 5 units injected into the tumor (day 1)
Protocol: as §1
Poorly differentiated carcinoma from human bladder was obtained from patients as a biopsy sample and a 0.1 cm^3 piece of the biopsy was implanted into SCID mice. […] Subsequently, the size of the tumors was measured daily.

[10] = tested on: Malignant melanoma; experiment: Human malignant melanoma xenograft in SCID mice, tumor size; assay type: in vivo; conditions: 5 units injected into the tumor (day 1)
Protocol: as §1
Malignant melanoma was obtained from patients as a biopsy sample and a 0.1 cm^3 piece of the biopsy was implanted into SCID mice. […] Subsequently, the size of the tumors was measured daily.

[11] = tested on: fibrosarcoma; experiment: Human fibrosarcoma xenograft in SCID mice, tumor size; assay type: in vivo; conditions: 5 units injected into the tumor (day 1)
Protocol: as §1
A fibrosarcoma was obtained from patients as a biopsy sample and a 0.1 cm^3 piece of the biopsy was implanted into SCID mice. […] Subsequently, the size of the tumors was measured daily.

[12] = tested on: Adenocarcinoma from ovaries; experiment: Human ovarian cancer xenograft in SCID mice, tumor size; assay type: in vivo; conditions: 5 units injected into the tumor (day 1)
Protocol: as §1
Adenocarcinoma from ovaries was obtained from patients as a biopsy sample and a 0.1 cm^3 piece of the biopsy was implanted into SCID mice. […] Subsequently, the size of the tumors was measured daily.

[13] = tested on: Ductal carcinoma from breast; experiment: Human breast cancer xenograft in SCID mice, tumor size; assay type: in vivo; conditions: 5 units injected into the tumor (day 1)
Protocol: as §1
Ductal carcinoma from breast was obtained from patients as a biopsy sample and a 0.1 cm^3 piece of the biopsy was implanted into SCID mice. […] Subsequently, the size of the tumors was measured daily.

[14] = tested on: Merkel cell cancer (neuroendocrine skin cancer); experiment: Merkel cell cancer xenograft in SCID mice, tumor size; assay type: in vivo, human; conditions: 5 units injected into the tumor (day 1)
Protocol: as §1
Merkel cell cancer (neuroendocrine skin cancer) was obtained from patients as a biopsy sample and a 0.1 cm^3 piece of the biopsy was implanted into SCID mice. […] Subsequently, the size of the tumors was measured daily.

[15] = tested on: Moderately differentiated adenocarcinoma from prostate; experiment: Human prostate cancer xenograft in SCID mice, tumor size; assay type: in vivo; conditions: 5 units injected into the tumor (day 1), FIG. 2
Protocol: as §1
Moderately differentiated adenocarcinoma from prostate was obtained from patients as a biopsy sample and a 0.1 cm^3 piece of the biopsy was implanted into SCID mice. […] Subsequently, the size of the tumors was measured daily.

[16] = tested on: Large cell lymphoma; experiment: Human lymphoma xenograft in SCID mice, tumor size; assay type: in vivo; conditions: 5 units injected into the tumor (day 1), over a period of 7 days, FIG. 2
Protocol: as §1
Large cell lymphoma was obtained from patients as a biopsy sample and a 0.1 cm^3 piece of the biopsy was implanted into SCID mice. […] Subsequently, the size of the tumors was measured daily.

[17] = tested on: LNCaP prostate cancer cells; experiment: LNCaP prostate cancer cell tumors in SCID mice; assay type: in vivo, human
Protocol: The effect of hexosaminidases on survival of tumor cells is also tested by administering hexosaminidases to experimental animals that have various tumors. Preferably, the tumors are human tumors or cancer xenograft tissues and the experimental animal is a SCID mouse. Good results have been obtained by transplanting tumor cells or tissues subcutaneously in the animal or behind the fat pad of the mouse. After the tumor cells or tissues are transplanted into the animal, the tumors cells grow and divide. When the tumors reach a visible size (e.g., 0.5-0.8 cm^3) in the SCID mice, a hexosaminidase is dissolved in PBS and various amounts of the hexosaminidase are injected into the tumor (i.e., intratumor injection), injected intraperitoneally (IP) into the animal, or intravenously (IV) into the animal. Single or multiple injections are used. The size of the tumor is subsequently measured to determine the effect of the enzyme on tumor growth and survival. A decrease in size of the tumors is indicative of anti-tumor activity of the hexosaminidase. Preferably, administration of the hexosaminidase results in a significant size reduction of the tumor. More preferably, the hexosaminidase eliminates the tumor from the SCID mouse. Preferably, such animals will remain free from tumors in the future.
One million LNCaP prostate cancer cells were injected into SCID mice. After the tumors grew to a size of between 0.3-0.6 cm^3, 5 units of Streptomyces chitinase was injected intratumorally, intraperitoneally and intravenously, in separate mice. […] All untreated animals died within 3 months.

[18] = Chitinase levels in blood of mice after different routes of administration (4-mu-chitotrioside assay of plasma); assay type: in vivo; conditions: mouse
Protocol: Thirty-five mg of chitinase (Sigma C-6139) was dissolved in 1.5 ml of PBS. One-half ml of the chitinase solution was injected into each of 3 mice. One mouse was injected intraperitoneally (IP), one was injected intravenously (IV), and one mouse was injected subcutaneously (SC). A fourth mouse was injected with saline as a control. At various times after injection, 15-20 μl of blood was taken from the tail vein of each mouse and immediately mixed with a sodium-EDTA solution (pH 7.4). The cells were centrifuged from the blood and 5 μl of plasma was used in a chitinase assay. In the chitinase assay, 4-methylumbelliferyl-β-D-N, N′, N″-triacetyl-chitotriose (4-mu-chitotrioside) was used as the substrate for chitinase. The plasma sample, in 100 μl of saline, was mixed with 100 μl of 22 μM 4-mu-chitotrioside solution in 0.2 M citric acid buffer (pH 5.2) and incubated in a 37° C. water bath for 15 min. At the end of the incubation, 3.0 ml of 0.3 M glycine buffer (pH 10.6) was added to the mixture to stop the reaction. The fluorescence of the solution at 460 nm was then measured after excitation at 355 nm.

[19] = Observation of treated mice for visible signs of systemic toxicity; assay type: in vivo; conditions: general statement; high chitinase levels do not appear to cause toxicity in normal tissues
Source text: Such toxicity is compared with toxicity that is present in control animals, animals administered doxorubicin for example.

[20] = tested on: human oral carcinoma KB cells; conditions: 3 days culture at 37° C., MTT, FIG. 1
Protocol: Good results have been obtained by testing the effect of hexosaminidases on the viability of cultured normal and tumor cells is tested by culturing normal cells (e.g., spleen cells from a mouse) and tumor cells (e.g., human oral carcinoma KB cells) in vitro and then adding various concentrations of the hexosaminidase to the cells. Different concentrations of the hexosaminidases are used. At various times after addition of the hexosaminidase, the viability of the cells is determined using one of a variety of methods. One method is the MTT assay. In this assay, cells are exposed to MTT, 3-(4,5-dimethylthiazol-2-yl)2,5-diphenyltetrazolium bromide, which is taken into the cells and reduced by mitochondrial dehydrogenase to a purple formazan, a large molecule which is unable to pass through intact cell membranes, and therefore accumulates in healthy cells. The ability of cells to reduce MTT is an indication of mitochondrial integrity and activity, which is interpreted as a measure of viability.
Fifty thousand spleen cells from a normal mouse, or human oral carcinoma KB cells were cultured. […] This product was dissolved in a solvent (95% ethanol:DMSO; 1:1), added to the cells and the absorbance (540 nm) was determined. The absorbance of the formazan is linearly proportional to the number of viable cells in the culture.

[21] = 5 units intratumorally, intraperitoneally and intravenously, in separate mice

Molecule: COc1cccc2c1C(=O)c1c(O)c3c(c(O)c1C2=O)C[C@@](O)(C(=O)CO)C[C@@H]3O[C@H]1C[C@H](N)[C@H](O)[C@H](C)O1 [doxorubicin, reference compound]
- anti-tumor effectiveness [1]: generally ineffective
- outcome of mice evaluated ([1]; 5 mg per kilogram IP on days 5, 7 and 9): eventually died from drug toxicity or progressive tumor growth
- course of tumor growth ([1]; 3 intraperitoneal injections of 5 mg/kg (maximum tolerated dose)): growth attenuation followed by a resumption of progressive growth

Molecule: chitinase
- effect on the viability of the normal mouse spleen cells [2]: little effect
- cellular damage after chitinase treatment [3]: significant cellular damage
- cellular damage after chitinase treatment [4]: significant cellular damage
- cellular damage after chitinase treatment [5]: significant cellular damage
- cellular damage after chitinase treatment [6]: significant cellular damage
- period over which human colon cancer was effectively eliminated from the animals [7]: 2 days
- elimination of lung tumors compared with human colon cancer of Example 2 ([8]; 5 units injected into the tumor (day 1), SCID mice): as effectively eliminated
- tumor size after chitinase treatment ([8]; 10 days after a single injection of 5 units, FIG. 3b): substantially reduced in size
- elimination of bladder tumors compared with human colon cancer of Example 2 [9]: as effectively eliminated
- elimination of melanomas compared with human colon cancer of Example 2 [10]: as effectively eliminated
- elimination of fibrosarcomas compared with human colon cancer of Example 2 [11]: as effectively eliminated
- elimination of ovarian tumors compared with human colon cancer of Example 2 [12]: as effectively eliminated
- elimination of breast tumors compared with human colon cancer of Example 2 [13]: as effectively eliminated
- elimination of Merkel cell tumors [14]: eliminated
- period over which prostate tumors were eliminated from the mouse [15]: 7 days
- change of lymphoma size [16]: reduced in size
- histological staining of tumors compared to saline control tumors [17, 21]: extensive cellular damage and morphological changes
- time after injection at which tumor necrosis was visible [17, 21]: within hours
- tumor regression [17, 21]: complete tumor regression
- survival of treated animals without tumor recurrence ([17]; 5 units, all untreated animals died within 3 months): more than one year
- development of resistance of the tumors to the enzyme ([17]; additional studies): no indication of development of resistance
- tumor elimination with an additional administration of chitinase after the first ([17]; additional studies): more rapidly eliminated
- dose dependence of anti-tumor activity ([1]; additional studies, increased with increasing dosages): dose dependent
- regression of established tumors ([1]; intraperitoneal injection of 5 Units on day 5 and day 6): complete tumor regression
- day until after which detectable growth of 24 JK sarcoma tumor cells was inhibited ([1]; single IP injection of 5 units five days after cell injection, FIG. 5): > 12 days
- regression of established tumors ([1]; single intraperitoneal injection of 10 Units on day 5): complete tumor regression
- maximum blood levels relative to those found in IV injection ([18]; IP injection): less than half
- time at which maximum blood levels were reached ([18]; IP injection): 2 to 3 min
- time until which blood levels tapered off ([18]; IP injection): 40 min
- time until which maximum levels remained ([18]; IP injection): 7 to 8 min
- time at which little chitinase was left in the blood ([18]; IV injection): 20 min
- levels of chitinase in the blood immediately after injection ([18]; IV injection, within 1 min.): very high levels
- maximum blood levels relative to blood levels found after IP injection ([18]; SC injection): a third
- time at which maximum blood levels were reached ([18]; SC injection): 2 to 3 min
- time until which blood levels tapered off ([18]; SC injection): 40 min
- systemic toxicity [19]: without significant systemic toxicity
- concentrations at which chitinase efficiently kills the tumor cells [20]: 0.025 to 0.05 units of chitinase per ml of culture medium
